In ChEMBL document CHEMBL1201862, “PubChem BioAssay data set” (2004):
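Five concentrations, 48 hours, 96-well plates. GI50: concentration for 50% inhibition of growth.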 Activity calls are given as the source filed them. No stated cut-off is given here; in the data, active = GI50 up to about 1.1 µM and inactive = higher.

Tests used:
Experiment in all cases: growth of human tumour cells (NCI), 48 h
[1] = test system: PC-3
[2] = test system: HCC 2998
[3] = test system: SNB-75
[4] = test system: UACC-62
[5] = test system: SK-OV-3
[6] = test system: UACC-257
[7] = test system: IGROV-1
[8] = test system: U-251
[9] = test system: MOLT-4
[10] = test system: CCRF-CEM
[11] = test system: T47D
[12] = test system: HCT-15
[13] = test system: OVCAR-4
[14] = test system: BT-549
[15] = test system: MDA-MB-231
[16] = test system: RPMI-8226
[17] = test system: SF-539
[18] = test system: 786-0
[19] = test system: HOP-62
[20] = test system: SN12C

| Compound | GI50 [1] | GI50 [2] | GI50 [3] | GI50 [4] | GI50 [5] | GI50 [6] | GI50 [7] | GI50 [8] | GI50 [9] | GI50 [10] | GI50 [11] | GI50 [12] [µM] | GI50 [13] | GI50 [14] | GI50 [15] | GI50 [16] | GI50 [17] | GI50 [18] | GI50 [19] | GI50 [20] |
| --- | --- | --- | --- | --- | --- | --- | --- | --- | --- | --- | --- | --- | --- | --- | --- | --- | --- | --- | --- | --- |
| O=C1c2ccccc2CCC1C(O)(C(F)(F)F)C(F)(F)F (stereo not given) | > 100 µM (inactive) | 3.67 µM (inactive) | 26.2 µM (inactive) | > 100 µM (inactive) | > 100 µM (inactive) | > 100 µM (inactive) | > 100 µM (inactive) | > 100 µM (inactive) | 44.6 µM (inactive) | > 100 µM (inactive) | 44.3 µM (inactive) | 63 | > 100 µM (inactive) | > 100 µM (inactive) | > 100 µM (inactive) | > 100 µM (inactive) | > 100 µM (inactive) | > 100 µM (inactive) |  |  |
| COc1ccc(-n2nnc3c(C#N)c(-c4ccccc4)c(C)n3c2=O)cc1 | 29.2 µM (inactive) | 72.6 µM (inactive) | 27.1 µM (inactive) | 53.7 µM (inactive) | > 100 µM (inactive) | 85.5 µM (inactive) | 24 µM (inactive) | 32.7 µM (inactive) |  | 8.39 µM (inactive) | 49.5 µM (inactive) | 31.4 | 28.8 µM (inactive) | > 100 µM (inactive) | 25.2 µM (inactive) | 26.1 µM (inactive) | 31.7 µM (inactive) | 19.1 µM (inactive) | 35.4 µM (inactive) | 62.5 µM (inactive) |
| COC(C)(C)CCc1[nH]c2ccccc2c1CC(=O)NCCc1cncn1C | > 100 µM (inactive) | > 100 µM (inactive) | > 100 µM (inactive) | > 100 µM (inactive) | > 100 µM (inactive) | > 100 µM (inactive) | > 100 µM (inactive) | > 100 µM (inactive) | > 100 µM (inactive) | > 100 µM (inactive) | > 100 µM (inactive) | > 100 | > 100 µM (inactive) | > 100 µM (inactive) | > 100 µM (inactive) | > 100 µM (inactive) | > 100 µM (inactive) | > 100 µM (inactive) |  | > 100 µM (inactive) |
| CCNc1ncnc2sc(SCc3ccccc3)nc12 | 38.5 µM (inactive) | 81.1 µM (inactive) | > 100 µM (inactive) |  | > 100 µM (inactive) | 79.1 µM (inactive) | > 100 µM (inactive) | > 100 µM (inactive) | 25.9 µM (inactive) | 33.9 µM (inactive) | 75.5 µM (inactive) | > 100 | > 100 µM (inactive) | > 100 µM (inactive) | > 100 µM (inactive) | 43.3 µM (inactive) | > 100 µM (inactive) | > 100 µM (inactive) | > 100 µM (inactive) | > 100 µM (inactive) |
| CCOP(=O)(OCC)[C@]12C[C@@H](C)C=C[C@H]1COC2=O | > 100 µM (inactive) | > 100 µM (inactive) | > 100 µM (inactive) | > 100 µM (inactive) | > 100 µM (inactive) | > 100 µM (inactive) |  | > 100 µM (inactive) | > 100 µM (inactive) | > 100 µM (inactive) | > 100 µM (inactive) |  | > 100 µM (inactive) | > 100 µM (inactive) | > 100 µM (inactive) | > 100 µM (inactive) | > 100 µM (inactive) | > 100 µM (inactive) | > 100 µM (inactive) | > 100 µM (inactive) |
| CC(=O)NNc1nc(C)c(C(=O)NNC(=O)C(=O)Nc2nc3ccc([N+](=O)[O-])cc3s2)s1 | 26.9 µM (inactive) | 42.1 µM (inactive) | 29.4 µM (inactive) | 51.6 µM (inactive) | 64.4 µM (inactive) | 77.8 µM (inactive) | 36.9 µM (inactive) | 47.5 µM (inactive) | 28.8 µM (inactive) | 22 µM (inactive) | 22.6 µM (inactive) | > 68.1 | 46.7 µM (inactive) | 45.8 µM (inactive) | 18.7 µM (inactive) | 30.5 µM (inactive) | 44.7 µM (inactive) | 61.5 µM (inactive) | > 82.6 µM (inactive) | 68.2 µM (inactive) |
| O=C(CNC(=O)OCc1ccccc1)NCCCCC(NC(=O)OCc1ccccc1)C(=O)O (stereo not given) | > 100 µM (inactive) | > 100 µM (inactive) | > 100 µM (inactive) | > 100 µM (inactive) | > 100 µM (inactive) | > 100 µM (inactive) | > 100 µM (inactive) | > 100 µM (inactive) | > 100 µM (inactive) | > 100 µM (inactive) | > 100 µM (inactive) | > 100 | > 100 µM (inactive) | > 100 µM (inactive) | > 100 µM (inactive) | > 100 µM (inactive) | > 100 µM (inactive) | > 100 µM (inactive) | > 100 µM (inactive) | > 100 µM (inactive) |
| CN1C(=O)[C@](C)(Cc2ccc(F)cc2)N(C(=O)OC(C)(C)C)[C@@H]1C(C)(C)C | 30.5 µM (inactive) | 24.3 µM (inactive) | 29.2 µM (inactive) | 32 µM (inactive) | 43.9 µM (inactive) | 30.5 µM (inactive) | 43.9 µM (inactive) | 29.6 µM (inactive) | 17.9 µM (inactive) | 40.9 µM (inactive) | 26.7 µM (inactive) | 37.8 | 43.1 µM (inactive) | 34.4 µM (inactive) | 38.1 µM (inactive) | 22.4 µM (inactive) | 41.2 µM (inactive) | 29.3 µM (inactive) | 40.7 µM (inactive) | 17.9 µM (inactive) |
| N#CC1=C(N)C(C#N)(C#N)C(c2ccc(F)cc2)C=C1C1CC1 (stereo not given) | 10.2 µM (inactive) | 12.8 µM (inactive) | 6 µM (inactive) | 8.24 µM (inactive) | 8.93 µM (inactive) | 9.12 µM (inactive) | 12.9 µM (inactive) | 5.68 µM (inactive) | 4.81 µM (inactive) | 4.71 µM (inactive) | 12.1 µM (inactive) | 9.77 |  | 3.2 µM (inactive) | 16.5 µM (inactive) | 7.05 µM (inactive) | 0.597 µM (active) | 9.84 µM (inactive) | 13.1 µM (inactive) | 2.72 µM (inactive) |
| Clc1ccc(-c2cn3c(nc4ccccc43)c(/C=C/c3cccs3)n2)cc1 | 44.9 µM (inactive) | > 100 µM (inactive) | > 100 µM (inactive) | > 100 µM (inactive) | > 100 µM (inactive) | 52.6 µM (inactive) | 92 µM (inactive) | 95.7 µM (inactive) |  | 45 µM (inactive) | 27.3 µM (inactive) | > 100 | 34.7 µM (inactive) | > 100 µM (inactive) | 53.7 µM (inactive) | 36.5 µM (inactive) | > 100 µM (inactive) | > 100 µM (inactive) | > 100 µM (inactive) | > 100 µM (inactive) |
| O=C(Nc1ccc(Cl)c(Cl)c1)OCCN1c2ccccc2Sc2ccccc21 | > 10 µM (inactive) | > 10 µM (inactive) | > 10 µM (inactive) | > 10 µM (inactive) | > 10 µM (inactive) | > 10 µM (inactive) | > 10 µM (inactive) | > 10 µM (inactive) | > 10 µM (inactive) | > 10 µM (inactive) | > 10 µM (inactive) | > 10 | > 10 µM (inactive) | > 10 µM (inactive) | > 10 µM (inactive) | > 10 µM (inactive) | > 10 µM (inactive) | > 10 µM (inactive) | > 10 µM (inactive) | > 10 µM (inactive) |
| CS(=O)(=O)OCCCCOS(=O)(=O)CF | > 100 µM (inactive) | > 100 µM (inactive) | > 100 µM (inactive) | > 100 µM (inactive) | > 100 µM (inactive) | > 100 µM (inactive) | > 91.4 µM (inactive) | > 100 µM (inactive) | 32.9 µM (inactive) | 52.4 µM (inactive) | > 100 µM (inactive) | > 100 | > 100 µM (inactive) | > 100 µM (inactive) | > 100 µM (inactive) | > 100 µM (inactive) | > 100 µM (inactive) | > 100 µM (inactive) | > 100 µM (inactive) | > 100 µM (inactive) |
| CC(C)(Br)C(Br)CCC(C)(Br)C(Br)CO (stereo not given) | > 10 µM (inactive) | > 10 µM (inactive) | > 10 µM (inactive) |  | > 10 µM (inactive) | > 10 µM (inactive) | > 10 µM (inactive) | > 10 µM (inactive) | > 10 µM (inactive) | > 10 µM (inactive) | > 10 µM (inactive) | > 10 | > 10 µM (inactive) | > 10 µM (inactive) | > 10 µM (inactive) | > 10 µM (inactive) | > 10 µM (inactive) | > 10 µM (inactive) | > 10 µM (inactive) | > 10 µM (inactive) |
| Cc1cc2nc(N3C(=O)/C(=C/Cc4ccco4)N=C3c3ccccc3)sc2cc1C | 12.1 µM (inactive) | 24.6 µM (inactive) | 17.7 µM (inactive) | 23.3 µM (inactive) | 92 µM (inactive) | 26 µM (inactive) | 21.3 µM (inactive) | 29 µM (inactive) | 20.3 µM (inactive) | 9.18 µM (inactive) | 31 µM (inactive) | 30.5 | 29.5 µM (inactive) | 30.5 µM (inactive) | 51.5 µM (inactive) | 23.7 µM (inactive) | 41.1 µM (inactive) | 27.2 µM (inactive) | 54.7 µM (inactive) | 25.6 µM (inactive) |
| COc1ccc(-c2cc(=O)c3ccc(O)cc3o2)cc1OC | 32.3 µM (inactive) | 46.9 µM (inactive) | 10.2 µM (inactive) | 33.8 µM (inactive) | 41.4 µM (inactive) | > 100 µM (inactive) | 32.9 µM (inactive) | 43.9 µM (inactive) | 25.6 µM (inactive) | 25.8 µM (inactive) | 25.9 µM (inactive) | 32.4 | 24.7 µM (inactive) | 46.5 µM (inactive) | 77.4 µM (inactive) | 22.8 µM (inactive) | 23.4 µM (inactive) | 56.9 µM (inactive) | 25.5 µM (inactive) | 41.3 µM (inactive) |
